Measured values as given in the NIST ThermoML archive (doi:10.1016/j.tca.2010.07.017).
Numbers after ± are expanded uncertainties.

What was measured:
[1] = refractive index (Na D-line) (dimensionless); conditions: 298.15 K; 101.33 kPa; Liquid; Standard Abbe refractometry
[2] = 298.15 K; 101.33 kPa; Liquid; Vibrating tube method

SMILES	refractive index [1]	mass density [2] [kg/m3]
C1CCOC1 [tetrahydrofuran]	1.4048 ± 0.0004	882.03 ± 0.1
CC(C)=O [acetone]	1.3563 ± 0.0004	784.65 ± 0.12
C1COCCO1 [1,4-dioxane]	1.4202 ± 0.0004	1028.12 ± 0.11
